Source: patent US20190352511A1, “LANTHANIDE COMPLEXES COMPRISING DENDRIMERS” (UNIVERSITE D'ORLEANS, priority 2017, published 2019)

Tests used:
HeLa cells [1] = test: Confocal fluorescence microscopy imaging; assay type: cell-based, human; conditions: 30 min incubation, 1.5 μM, λex 633 nm (laser 6%), λem 650-800 nm
Procedure: HeLa cells after 30 min of incubation with a solution of 1.5 μM compound 9 and dendrimer (Ln8-)G3P-(Bodipy1)n (n=16, 32; Ln=Yb^3+, Nd^3+). The emission of aza-BODIPY (λex: 633 nm, λem: 650-800 nm) was observed under excitation at 633 nm (laser power at 6%). (Top) Yb8-G3P-(Bodipy1)16 (A), Nd8-G3P-(Bodipy1)16 (B), G3P-(Bodipy1)16 (C), Compound 9 (D) and (bottom) Yb8-G3P-(Bodipy1)32 (A), Nd8-G3P-(Bodipy1)32 (B), G3P-(Bodipy1)32 (C), untreated cells (D). The images are taken in the plane of the cellular nucleus. The white arrows indicate the specific localization of the dendrimers in the lysosomes and the yellow arrows indicate the filopods. 63× magnification lens.
Confocal microscopy experiments were performed to confirm the intracellular localization of the dendrimers (FIG. 7). For this purpose, HeLa cells were incubated for 30 min with a concentration solution of 1.5 μM, which corresponds to ˜89-100% of cell viability. The fluorescence of the dendrimers was observed using a 633 nm laser as the excitation source and the emission of aza-BODIPY was collected between 650 and 800 nm with an optical cut of 1 μm in the z axis. The same laser power was used for the different experiments to compare the signal intensity variations between different dendrimers.

Absorption spectra = assay type: physicochemical; conditions: DMSO, low energy main band at 672 nm
Text: For the sake of comparison, the absorption spectrum of compound 9 is multiplied by a factor corresponding to the number of chromophores attached to the branches of the dendrimer, for example, by 16 for (Ln8-) G3P-(Bodipy1)16 and by 32 for (Ln8-) G3P-(Bodipy1)32.
The absorption spectrum of the Bodipy chromophore (compound 9) measured in a DMSO solution has a broad band of up to 770 nm with a low energy main band at 672 nm (ϵ=2.1.10^5 M^−1 cm^−1), FIG. 3). […] On the other hand, the molar coefficient of absorption increases with the number of Bodipy chromophore units attached.
Absorption spectra of the Yb8-G3P-(TPP)32 complex were recorded in DMSO and in the DMSO/(Opti-MEM/FCS, 6: 94%) mixture (FIG. 13).

HeLa cells [2] = test: Alamar Blue cytotoxicity test; assay type: cell-based, human; conditions: up to 2 μM, 24 h incubation
Procedure: In order to determine the potential toxicity of the described dendrimers, an Alamar Blue test was performed on the HeLa […] carcinoma human cell line (FIG. 6). Different concentrations of chromophores (compound 9) and dendrimers (Ln8-)G3P-(Bodipy1)n (n=16, 32; Ln=Yb^3+, Nd^3+) were tested.

[3] = Absolute quantum yields (Q) in DMSO solution; assay type: physicochemical
Text: The absolute quantum yields of the chromophore (compound 9) and dendrimers (Ln8-)G3P-(Bodipy1)n (n=16, 32; Ln=Yb^3+, Nd^3+) are summarized in Table 1. Significant decreases (6 and 3.4 times) in quantum emission efficiencies from the aza-BODIPY-COOH chromophoric moieties for the functionalized dendrimers, G3P-(aza-BODIPY)32 and G3P-(aza-BODIPY)16, respectively. […] On the other hand, the Q values are increased by 1.7 and 1.4 times for G3P-(Bodipy1)32 during the encapsulation of the lanthanide cations Yb^3+ and Nd^3+, respectively.

[4] = Photobleaching / photostability under continuous illumination; assay type: physicochemical; conditions: 10 μM in DMSO, uninterrupted illumination at 670 nm for 3 h, emission at 735 nm
Procedure: The experiments were carried out for a solution at 10 μM in DMSO and under uninterrupted illumination at 670 nm, the emission being collected at 735 nm.
To test the photostability of the system, the chromophore (compound 9) and the dendrimers (Ln8-)G3P-(Bodipy1)n (n=16, 32; Ln =Yb^3+, Nd^3+) were continuously illuminated with 670 […]. nm and the emission signal was monitored at 735 nm. […] However, the photostability of G3P-(Bodipy1)16 could be improved by the incorporation of Ln^3+. In addition, it turned out to be dependent on the nature of the lanthanides. […] As for the initial chromophore, compound 9 (FIG. 5) loses 75% of its luminescence intensity after 3 hours of illumination. Therefore, in general, the attachment of the chromophore moieties to the dendrimer structure and the presence of Ln^3+ can be advantageously used to provide and enhance the photostability of the probe.
The continuous illumination of G3P-(Alkyne)x-(Cyanine)y (x=22-24, y=8-10) with a light centered at 665 nm makes it possible to estimate the photostability of the dendrimers which appears to be rather weak. (FIG. 11).

HeLa cells [5] = test: Cellular internalization by flow cytometry (NaN3 or 4° C. inhibition); assay type: cell-based, human; conditions: 1.5 μM; for Cellular internalization, Active (percentage inhibited with NaN3): NaN3 treatment
Procedure: HeLa cells were incubated for 30 min with a 1.5 μM concentration solution of chromophores and dendrimers (Ln8-)G3P-(Bodipy1)n (n=16, 32; Ln=Yb^3+, Nd^3+) as control. In order to block the active and passive transport pathways, HeLa cells were treated with NaN3 (active internalization inhibitor) or pre-incubated at 4° C. for 30 min (inhibition of active and passive pathways) before incubation with the dendrimers.
Cytometry has been used to quantify cell internalization of dendrimers and to better understand signal intensity differences observed in confocal microscopy. The mechanisms of passive (non-dependent energy) and active (energy dependent) internalization of cells have been studied. Active transport was inhibited with sodium azide (NaN3), while incubation at 4° C. inhibited active and passive transport pathways by increasing the plasma membrane stiffness of HeLa cells (S. Vranic, N. Boggetto, V. Contremoulins, S. Mornet, N. Reinhardt, F. Marano, A. Baeza-Squiban, S. Boland, Deciphering the mechanisms of cellular uptake of nanoparticles by accurate evaluation of internalization for cytometry, Particle and Fiber Toxicology, 10 (2013) 1-16).
However, for both types of dendrimers, internalization is consistently higher for those containing Yb^3+ than for those containing Nd^3+. […] For the chromophore compound 9, a relatively strong emission signal was observed and corresponding to 65% internalization of Yb8G3P-(Bodipy1)16. […] Dendrimers enter cells through active and passive transport pathways (FIG. 8). The relative percentages of active or passive internalization vary according to the number of Bodipy chromophore and the presence of Ln^3+. […] However, further studies are needed to clarify the exact mechanisms of active transportation. […]

- molar absorption coefficient ϵ (Absorption spectra): 2.1.10^5 M^−1 cm^−1
- quantum yield ratio versus Yb8-G3P-(aza-BODIPY)16 [3]: 3.4 times
- Q (%) quantum yield ([3]; 10 μM in DMSO, room temperature, excitation 650 nm, emission collected 660 to 850 nm): 8.04(8) %
- decrease of initial luminescence intensity [4]: 75%
SMILES: COc1ccc(-c2cc(-c3ccccc3)n(B(F)F)c2/N=C2\N=C(c3ccccc3)C=C2c2ccc(OCC(=O)O)cc2)cc1 [Compound 9, (Z)-2-(4-(2((1-(difluoroboryl)-3-(4-methoxyphenyl)-5-phenyl-1H-pyrrol-2-yl)imino)-5-phenyl-2H-pyrrol-3-yl)phenoxy)acetic acid]
- intracellular emission signal intensity (confocal) (HeLa cells [1]): signal of lower intensity
- cell viability (HeLa cells [2]): ~100%
- Cellular internalization, Passive (HeLa cells [5]; difference between internalization inhibited at 4° C. and inhibited with sodium azide): 81 ± 1%
- internalization relative to Yb8G3P-(Bodipy1)16 (HeLa cells [5]; 30 min incubation): 65%
- Cellular internalization, Active (percentage inhibited with NaN3) (HeLa cells [5]; 30 min incubation): 19%
- Cellular internalization, Active (percentage inhibited with NaN3) (HeLa cells [5]; 30 min incubation, listed as Composé{acute over ( )}9, 1.5 µM): 18 ± 4%
